Experimental data as given in US12048761B2, “Methods and pharmaceutical compositions for the treatment of retinal capillary non-perfusion” (INSERM (INSTITUT NATIONAL DE LA SANTÉ ET DE LA RECHERCHE …, priority 2015, dated 2024).
Entries after “also recorded” stand apart in the source; their conditions may differ.

What was measured:
[1] = test system: p-MLC; experiment: Western blotting of p-MLC protein level in RPE; format: in vivo, rat; conditions: GK diabetic rats, 3 intravitreous injections of 20 μM, vs vehicle
Protocol: (§1) For intravitreous injections, diabetic rats were anesthetized with an intraperitoneal injection of pentobarbital (40 mg/kg Nembutal, Abbot, Saint-Remy sur Avre, France) and pupils were dilated with a topically applied drop of 5% tropicamide (Ciba Vision, Toulouse, France), and locally anesthetized with a drop of 1% tetracaine (Ciba Vision). Three consecutive injections, of Fasudil at a concentration of 20 µM or vehicle were performed, at 48 hours interval under a surgical microscope, using a 30-gauge needle (Microfine: Becton Dickinson, Meylan, France as described previously). […] Protein concentration was determined using a (Pierce BCA protein assay kit Thermo Scientific Rockford USA) (20-40 μg) were subjected to SDS-PAGE on Nupage 4-12% Bis-Tris gel electrophoresis, and electroblotted onto nitrocellulose membranes (Optitran BA-S 83 GE Healthcare Life Science Whatman). […] Then, membranes were incubated with the corresponding peroxidase-conjugated F(ab)2 fragment (Santa cruz Biotechnology Inc, Santa Cruz, CA, USA (dilution 1:5000) secondary antibodies. Immunoreactive bands were detected with the ECL Western blotting Detection Reagents Kit (Thermo Scientific Rockford USA). The relative abundance of individual proteins identified was quantified by scanning densitometry. The list of antibodies used for western-blots are provided in Table 2.

[2] = test system: ROCK1/P-MLC; experiment: Immunolocalization of ROCK1 and P-MLC on RPE cell flatmounts; format: in vivo, rat; conditions: GK diabetic rats, 3 intravitreous injections of 20 μM
Protocol: (§3) For intravitreous injections, diabetic rats were anesthetized with an intraperitoneal injection of pentobarbital (40 mg/kg Nembutal, Abbot, Saint-Remy sur Avre, France) and pupils were dilated with a topically applied drop of 5% tropicamide (Ciba Vision, Toulouse, France), and locally anesthetized with a drop of 1% tetracaine (Ciba Vision). Three consecutive injections, of Fasudil at a concentration of 20 M or vehicle were performed, at 48 hours interval under a surgical microscope, using a 30-gauge needle (Microfine: Becton Dickinson, Meylan, France as described previously [29-31]). Animals were sacrificed 48 hours following the administration of 3 intra-vitreous injections of 20 μM of Fasudil, each injection was 2 days apart.
For flatmounts, after enucleation, ocular globes were fixed in 4% paraformaldehyde (PFA) for 15 min at room temperature and sectioned at the limbus; anterior segments were discarded. Neural retinas and RPE/choroids were fixed separately for additional 15 min in acetone at −20° C. Specimens were then incubated overnight at 4° C. with primary antibodies diluted in PBS supplemented with 10% foetal calf serum (FCS) and 0.1% Triton X-100. Immunohistochemistry was repeated at least 7 times on 7 different animals for each group.

[3] = test system: VEGF; experiment: VEGF western blot in neural retina and VEGF immunostaining on retinal flatmounts; format: in vivo, rat; conditions: GK rats, Fasudil vs vehicle, n=8/group, western blot (VEGF-164, neural retina)
Protocol: as §1

[4] = test system: RPE cells; experiment: Quantitative analysis of RPE cell layer morphology on RPE flat-mounts; format: in vivo, rat; conditions: Fasudil vs vehicle
Protocol: For intravitreous injections, diabetic rats were anesthetized with an intraperitoneal injection of pentobarbital (40 mg/kg Nembutal, Abbot, Saint-Remy sur Avre, France) and pupils were dilated with a topically applied drop of 5% tropicamide (Ciba Vision, Toulouse, France), and locally anesthetized with a drop of 1% tetracaine (Ciba Vision). Three consecutive injections, of Fasudil at a concentration of 20 µM or vehicle were performed, at 48 hours interval under a surgical microscope, using a 30-gauge needle (Microfine: Becton Dickinson, Meylan, France as described previously). Animals were sacrificed 48 hours following the administration of 3 intra-vitreous injections of 20 μM of Fasudil, each injection was 2 days apart. To analyse RPE flat-mounts and in order to assess the cell morphology. an ImageJ [32] macro tool was created in Fiji. Briefly, after a first image processing by FFT band pass filtering, images were converted into binary format and masked and then processed to obtain a skeleton image (isolated segments and loops were removed). This image was inverted and the cells segmented and labelled with the “particle analysis” tool in ImageJ, the Regions of Interest (ROI) were delimited using ROI Manager tool. The number of vertices for each cell was measured following detection of triple points (points were three branches are joined together) with the appropriate binary “hit or miss” transformation. For this transformation, the ImageJ plugin “morphology” was used. By removing those points from the skeleton image, the number of individual edges was counted as well as their length. The number of vertices was then verified and manually corrected for errors. Images with more than 5% automatic alignment errors were eliminated from analysis. Following this several morphological parameters were then measured for each cell e.g. area, perimeter, circularity, number of neighbours/vertices/edges of a cell etc. […]

[5] = test system: ROCK-1; experiment: Western blotting of ROCK1 protein level in RPE; format: in vivo, rat; conditions: GK diabetic rats, 3 intravitreous injections of 20 μM, vs vehicle injected eyes, n=6
Protocol: as §3
RPE/choroid and neural retina were homogenized in a lysis buffer (50 mM Mops, 50 mM Trisbase, 0.1%, SDS 1 mM EDTA PH 7.7) containing a protease inhibitor cocktail (Roche, France). Protein concentration was determined using a (Pierce BCA protein assay kit Thermo Scientific Rockford USA) (20-40 μg) were subjected to SDS-PAGE on Nupage 4-12% Bis-Tris gel electrophoresis, and electroblotted onto nitrocellulose membranes (Optitran BA-S 83 GE Healthcare Life Science Whatman). Membranes were incubated with primary antibodies.

[6] = test system: ROCK; experiment: ROCK Activity Immunoblot Kit: phosphorylation of recombinant MYPT1 by RPE/choroid samples of treated GK rats; format: in vivo, rat; conditions: GK diabetic rats, 3 intravitreous injections of 20 μM, vs vehicle
Protocol: We used a ROCK Activity Immunoblot Kit (Cell Biolabs, San Diego, CA, USA) that utilizes recombinant MYPT1 as a ROCK substrate. ROCK inactivates myosin phosphatase through a specific phosphorylation of myosin phosphatase target subunit 1 (MYPT1) at Thr696, which results in an increase in the phosphorylated content of the 20-kDa myosin light chain. (MLC20) After incubating the substrate (recombinant MYPT1) with RPE/choroid samples, the phosphorylated MYPT1 was detected by western blot analysis using an anti-phospho-MYPT1 (Thr696). In brief, RPE/choroid protein samples were diluted in 1× Kinase buffer. 25 μL (75 μg of proteins) was added in microcentrifuge tubes and the initiation of kinase reaction was performed by adding 50 μL of 1× Kinase/ATP/Substrate Solution. The microcentrifuge tubes were then incubated at 30° C. for 30-60 minutes with gentle agitation. Then the kinase reaction was stopped by adding 25 μL of 4× reducing SDS-PAGE sample buffer. […] Inhibition of ROCK activity was evaluated by western blotting and quantified.

[7] = test system: retinal vessels; experiment: In vivo imaging of retinal vessels using confocal angiography; design: species or system rat; conditions: GK rats, intravitreal fasudil, p<0.05
Protocol: (§2) For intravitreous injections, diabetic rats were anesthetized with an intraperitoneal injection of pentobarbital (40 mg/kg Nembutal, Abbot, Saint-Remy sur Avre, France) and pupils were dilated with a topically applied drop of 5% tropicamide (Ciba Vision, Toulouse, France), and locally anesthetized with a drop of 1% tetracaine (Ciba Vision). Three consecutive injections, of Fasudil at a concentration of 20 µM or vehicle were performed, at 48 hours interval under a surgical microscope, using a 30-gauge needle (Microfine: Becton Dickinson, Meylan, France as described previously). Animals were sacrificed 48 hours following the administration of 3 intra-vitreous injections of 20 μM of Fasudil, each injection was 2 days apart.

[8] = test system: retinal capillary network; experiment: Quantitative assessment of the retinal microangiopathy: lectin-labelled capillary surface on flat-mounted retina; format: in vivo, rat; conditions: GK rats, n=4 Fasudil and n=5 vehicle, p<0.05
Protocol: For intravitreous injections, diabetic rats were anesthetized with an intraperitoneal injection of pentobarbital (40 mg/kg Nembutal, Abbot, Saint-Remy sur Avre, France) and pupils were dilated with a topically applied drop of 5% tropicamide (Ciba Vision, Toulouse, France), and locally anesthetized with a drop of 1% tetracaine (Ciba Vision). Three consecutive injections, of Fasudil at a concentration of 20 µM or vehicle were performed, at 48 hours interval under a surgical microscope, using a 30-gauge needle (Microfine: Becton Dickinson, Meylan, France as described previously). Animals were sacrificed 48 hours following the administration of 3 intra-vitreous injections of 20 μM of Fasudil, each injection was 2 days apart. To quantify the area of large and small blood vessels on flat mounted retina, an ImageJ macro was created in Fiji. Briefly, the local thickness function available with the Fiji plugin for ImageJ software was used to create a map of the blood vessels, from which diameter of the local structures could be evaluated. This map was thresholded to define two binary masks corresponding to the vessels of large diameter (local thickness>threshold) and the vessels of small diameter (local thickness<threshold). The area of those masks was then measured and expressed in terms of the surface area occupied by the small vessels.

[9] = test system: outer retinal barrier (RPE); experiment: Blood-retinal barrier breakdown using intravenous injection of 150 KDa FITC-dextran; format: in vivo, rat
Protocol: as §2, with “apart. To assess blood retinal barrier breakdown, 200 μl of 150 KDa FITC-dextran at 50 mg/ml in PBS (Sigma) was injected intravenously in the tail of rats treated by Fasudil or vehicle (n=5), 2 hours prior killing. Leakage of FITC-dextran was evaluated by measuring fluorescence within the retina using imageJ software as previously described by others. Cryosections (10 μm) of Fasudil and vehicles injected rats retina were randomly imaged (10 images at 40× magnification per animal) and analysed.” for “apart.”

[10] = test system: ROCK; conditions: cited from earlier work

Row | Structure (SMILES) | phosphorylated MLC in the RPE [1] | localization of ROCK1/P-MLC in RPE cells [2] | VEGF levels in retina [3] | frequency of normal size RPE cells ([4]; GK retina, p<0.001) | frequency of small RPE cells (<200 μm2) ([4]; GK retina, p<0.001) | distribution of RPE cell area ([4]; WS (non-diabetic Wistar) retina, ANOVA p=0.17) | total ROCK-1 in the RPE [5] | phosphorylated MYTP1 in the RPE (ROCK-1 activity) [6] | vasodilation of retinal vessels (vascular diameter before and after treatment) [7] | capillary density (% of surface coverage by small vessels) [8] | RPE barrier on histological sections ([9]; GK eyes, Fasudil treated) | vessel leakage (neural retina corrected total fluorescence) ([9]; GK eyes, Fasudil vs vehicle, n=5-6, p<0.01) | passage of 150 KDa FITC-dextran across the RPE barrier ([9]; GK rats, 2 hours after intravenous FITC-dextran, qualitative on cryosections) | affinity to ROCK relative to Fasudil [10]
1 | O=S(=O)(c1cccc2cnccc12)N1CCCNCC1 [Fasudil, hexahydro-1-(5-isoquinolylsulfonyl)-1H-1,4-di-azepime] | significant reduction | relocation of ROCK1/P-MLC from the membrane into the cytoplasm | significant decrease | increase frequency of normal size cells | significantly less small cells; also recorded: reduction in the frequency of small cells | no difference in distribution of cell area | not significantly decreased | significant reduction | significant effect of fasudil on retinal vessel diameter; also recorded: significant vasodilation | significantly increased | intact RPE barrier | significant reduction in vessel leakage | did not cross the RPE barrier | –
2 | O=c1[nH]ccc2c(S(=O)(=O)N3CCCNCC3)cccc12 [Hydroxyfasudil] | – | – | – | – | – | – | – | – | – | – | – | – | – | higher affinity
